For four compounds, M.I.C. and MIC results are on record in patent EP0026409A1, “Combinations of active ingredients, pharmaceutical preparations, as well as their preparation” (F. HOFFMANN-LA ROCHE & CO. Aktiengesellschaft, priority 1979, dated 1981).

What all share (assay): In vitro activity: M.I.C. on nutrient agar plates, surface inoculation, 24 h at 37°C
What all share (assay type): cell-based

One experiment deals with Staphylococcus aureus. The following applies: S. aureus, Peptid or Antibiotikum alone; for MIC: Staphylococcus aureus, 24 h. The source says:
(§1) Es wurden konzentrierte Lösungen von Gemischen der Verbindungen der Formel I und dem Antibiotikum in den gewünschten Gewichtsverhältnissen hergestellt, die dann beliebig verdünnt wurden. Aliquote Teile der verdünnten Lösungen wurden mit einem geeigneten Nähragar in Petrischalen gemischt. Zum Vergleich wurden ähnliche Agar-Schalen hergestellt, die ausser dem Nährmedium die Verbindung I bzw. das Antibiotikum alleine enthielten. Nach Oberflächeninokulation mit den Mikroorganismen wurde 24 Stunden bei 37°C aufbewahrt und dann die minimale Hemmkonzentration (M.I.C.) bestimmt und die F.I.C.-Indexe berechnet. Die Ergebnisse unter Verwendung repräsentativer Verbindungen der Formel I, nämlich (1R)-1-(N-Sarcosyl-L-norvalyl-L-norvalylamino)-ethylphosphonsäure, und (1R)-1-(N-Methyl-L-leucyl-L-norvalyl-L-norvalylamino)-ethylphosphonsäure und repräsentativer Antibiotika, nämlich Cephalexin und D-Cycloserin, sind in den folgenden Tabellen I-III zusammengestellt..

For another experiment, the system named is Streptococcus faecalis. Particulars: S. faecalis, Peptid or Antibiotikum alone.
From the text: as §1

The next experiment deals with Streptococcus pyogenes. The following applies: S. pyogenes, Peptid or Antibiotikum alone.
From the text: as §1

The test system of another experiment is Streptococcus agalactiae. The following applies: S.agalactiae, Peptid or Antibiotikum alone.
From the text: as §1

Experiment [1] deals with Streptococcus dysgalactiae. Particulars: S.dysgalactiae, Peptid or Antibiotikum alone.
From the text: as §1

The subject of a further experiment is Escherichia coli. Particulars: E. coli, Peptid or Antibiotikum alone.
From the text: as §1

A further experiment has as its system Proteus mirabilis. The following applies: P. mirabilis, Peptid or Antibiotikum alone.
From the text: as §1

Converted amounts (≈) assume the structure as drawn. Where two headings read alike, the source gives them in different places. Where only a bound is given, the exact number is not on record here.

As to `CCC[C@H](NC(=O)[C@H](CC(C)C)NC)C(=O)N[C@@H](CCC)C(=O)N[C@@H](C)P(=O)(O)O` [(1R)-1-(N-Methyl-L-leucyl-L-norvalyl-L-norvalylamino)-ethylphosphonsäure], the M.I.C. in the experiment with Staphylococcus aureus was over 64 µg/mL; in the experiment with Streptococcus faecalis, 2 µg/mL; in the experiment with Streptococcus pyogenes, over 64 µg/mL.
For `N[C@@H]1CONC1=O` [D-Cycloserin], the MIC is 90.5 µg/mL (≈ 886 µM) against Streptococcus agalactiae (Streptococcus agalactiae, 24 h); 16 µg/mL (≈ 157 µM) in the experiment with Staphylococcus aureus (read-out: M.I.C.); 128 µg/mL (≈ 1250 µM) in experiment [1] (Streptococcus dysgalactiae, 24 h); 32 µg/mL (≈ 313 µM) in the experiment on Escherichia coli (Escherichia coli, 24 h).
For the compound `CCC[C@H](NC(=O)CNC)C(=O)N[C@@H](CCC)C(=O)N[C@@H](C)P(=O)(O)O` [(1R)-1-(N-Sarcosyl-L-norvalyl-L-norvalylamino)-ethylphosphonsäure], the M.I.C. is 45.2 µg/mL in the experiment on Streptococcus agalactiae; over 128 µg/mL with Staphylococcus aureus; 2.8 µg/mL in experiment [1]; 2 µg/mL in the experiment with Escherichia coli; over 128 µg/mL in the experiment with Proteus mirabilis; 90.5 µg/mL with Streptococcus faecalis. Moreover, the M.I.C. in the experiment on Streptococcus pyogenes was 90.5 µg/mL.
For the compound `CC1=C(C(=O)O)N2C(=O)[C@@H](NC(=O)[C@H](N)c3ccccc3)[C@H]2SC1` [Cephalexin], the M.I.C. in the experiment with Staphylococcus aureus was found to be 64 µg/mL; in the experiment with Streptococcus pyogenes, 8 µg/mL. The MIC was determined as 45.2 µg/mL (≈ 130 µM) with Staphylococcus aureus; 22.6 µg/mL (≈ 65.1 µM) against Proteus mirabilis (Proteus mirabilis, 24 h); 128 µg/mL (≈ 368 µM) with Streptococcus faecalis (Enterococcus faecalis, 24 h); 11.3 µg/mL (≈ 32.5 µM) in the experiment with Streptococcus pyogenes (Streptococcus pyogenes, 24 h).
